Assay results taken from ChEMBL document CHEMBL3227995, “Synthesis of aza homologues of folic acid” (J Med Chem, 1979).
Converted amounts (≈) assume the structure as drawn. The source made the active and inactive calls. The rule behind the calls is not given here.

Tests used:
CCRF-CEM [1] = assay: Cytotoxicity against human CCRF-CEM cells at 10 ug/ml; format: functional, cell-based
Lacticaseibacillus casei [2] = assay: Antimicrobial activity against Lactobacillus casei ATCC 7469 at 2 ug/ml; format: functional, organism-based
Lacticaseibacillus casei [3] = assay: Antimicrobial activity against Lactobacillus casei ATCC 7469; format: functional; conditions: read-out: ID50 (the source's name)
CCRF-CEM [4] = assay: Cytotoxicity against human CCRF-CEM cells; format: functional; conditions: read-out: ID50 (the source's name)
L1210 = assay: Antitumor activity against mouse L1210 cells allografted in BDF1 mouse assessed as increase of life span at non-toxic dosed administered as ip on day 1, 4 and 7; format: functional, organism-based
Mus musculus = assay: Toxicity in mouse L1210 cells allografted BDF1 mouse at 60 mg/kg, ip; format: organism-based; parameters: dose 60 mg/kg, route intraperitoneal; conditions: in vivo
[5] = biological target: T1, Thymidylate synthase (Lactobacillus casei) (UniProt P00469); assay: Inhibition of Lactobacillus casei thymidylate synthetase; conditions: Lacticaseibacillus casei
T1 sequence (whole entry): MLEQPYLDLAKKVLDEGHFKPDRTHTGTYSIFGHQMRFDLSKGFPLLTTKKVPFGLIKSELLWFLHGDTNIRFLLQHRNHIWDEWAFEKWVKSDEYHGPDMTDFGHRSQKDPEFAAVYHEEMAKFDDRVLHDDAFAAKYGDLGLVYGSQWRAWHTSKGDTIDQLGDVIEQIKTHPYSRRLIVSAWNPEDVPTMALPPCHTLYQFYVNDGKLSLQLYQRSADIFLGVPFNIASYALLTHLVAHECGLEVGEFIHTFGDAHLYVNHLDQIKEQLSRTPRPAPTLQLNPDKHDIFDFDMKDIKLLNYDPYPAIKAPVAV

Enterococcus faecium = assay: Increase of Streptococcus faecium ATCC 8043 growth relative to folic acid; format: functional
Pediococcus = assay: Increase of Pediococcus cerevisiae ATCC 8081 growth relative to leucovorin; format: functional

Compound | Activity (CCRF-CEM [1]) | Activity (Lacticaseibacillus casei [2]) | also measured
COC(=O)CC[C@H](NC(=O)Nc1ccc(NCc2cnc3nc(NC(C)=O)[nH]c(=O)c3n2)cc1)C(=O)OC | inactive | inactive | 
CN(Cc1cnc2nc(N)nc(N)c2n1)c1ccc(C(=O)N[C@@H](CCC(=O)O)C(=O)O)cc1 [METHOTREXATE] |  |  | IC50 (Lacticaseibacillus casei [3]): 0.01 µg/mL (≈ 0.022 µM); IC50 (CCRF-CEM [4]): 0.02 µg/mL (≈ 0.044 µM)
Nc1nc2ncc(CNc3ccc(NC(=O)NC(CC(=O)O)C(=O)O)cc3)nc2c(=O)[nH]1 (racemic) | inactive |  | IC50 (Lacticaseibacillus casei [3]): 1.6 µg/mL (≈ 3.62 µM); Activity (L1210): inactive; Activity (Mus musculus): Toxic; ID50 [5]: 1.8 ×10⁻⁴ M
Nc1nc2ncc(CNc3ccc(NC(=O)NC(CCC(=O)O)C(=O)O)cc3)nc2c(=O)[nH]1 (racemic) | inactive | inactive | Activity (L1210): inactive; Activity (Enterococcus faecium): 2%; Activity (Pediococcus): 0.5%; Activity (Mus musculus): Toxic; ID50 [5]: 1.8 ×10⁻⁴ M
COC(=O)C[C@H](NC(=O)Nc1ccc(NCc2cnc3nc(NC(C)=O)[nH]c(=O)c3n2)cc1)C(=O)OC | inactive | inactive | 
COC(=O)CC[C@H](NC(=O)Nc1ccc(/N=C/c2cnc3nc(NC(C)=O)[nH]c(=O)c3n2)cc1)C(=O)OC | inactive | inactive | 
COC(=O)C[C@H](NC(=O)Nc1ccc(/N=C/c2cnc3nc(NC(C)=O)[nH]c(=O)c3n2)cc1)C(=O)OC | inactive | inactive | 
